“And” between values parts separate entries of the source, which are not always exact repeats. Equal entries are not always repeated. Where two headings read alike, the source gives them in different places.

One data set addresses T1, PDE2A (Rattus norvegicus, UniProt Q01062).
T1 construct: Twenty μm-thick striatal sections were cut; from tissue; host or cells: rat brain, striatal sections
T1 sequence (Q01062 1-928): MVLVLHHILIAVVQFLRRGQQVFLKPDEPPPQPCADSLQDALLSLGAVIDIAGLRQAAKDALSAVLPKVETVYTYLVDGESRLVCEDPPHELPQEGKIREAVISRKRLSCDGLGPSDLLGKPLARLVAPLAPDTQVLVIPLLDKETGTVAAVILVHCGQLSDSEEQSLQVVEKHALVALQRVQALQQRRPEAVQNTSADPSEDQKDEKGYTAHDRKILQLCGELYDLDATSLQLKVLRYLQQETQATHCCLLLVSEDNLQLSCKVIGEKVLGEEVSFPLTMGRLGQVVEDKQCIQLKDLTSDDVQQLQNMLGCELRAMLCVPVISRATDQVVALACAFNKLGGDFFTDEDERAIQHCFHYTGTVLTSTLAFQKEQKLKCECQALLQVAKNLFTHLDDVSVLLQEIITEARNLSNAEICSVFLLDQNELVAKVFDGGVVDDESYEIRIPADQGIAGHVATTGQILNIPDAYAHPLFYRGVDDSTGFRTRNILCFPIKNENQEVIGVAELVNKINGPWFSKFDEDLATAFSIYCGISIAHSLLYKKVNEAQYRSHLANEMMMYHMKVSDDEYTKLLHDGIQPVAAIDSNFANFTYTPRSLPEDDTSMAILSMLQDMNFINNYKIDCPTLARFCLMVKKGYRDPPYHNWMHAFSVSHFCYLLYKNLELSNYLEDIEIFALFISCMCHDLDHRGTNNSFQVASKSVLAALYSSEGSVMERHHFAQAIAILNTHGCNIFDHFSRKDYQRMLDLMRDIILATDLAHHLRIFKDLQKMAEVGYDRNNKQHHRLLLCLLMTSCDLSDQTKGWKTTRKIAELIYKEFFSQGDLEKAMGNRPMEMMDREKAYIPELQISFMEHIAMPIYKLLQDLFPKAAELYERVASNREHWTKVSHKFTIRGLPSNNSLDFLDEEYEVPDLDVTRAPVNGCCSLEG
As to the kind of experiment: PDE2 occupancy by test compounds, ex-vivo autoradiography with [3H]B-17a. The data set is classed as in vivo, Male Wistar rats. Particulars: route PO (oral).

Data set [1] concerns the target T2, Human recombinant PDE10A (hPDE10A) (Homo sapiens, UniProt Q9Y233).
T2 construct: His tag (inferred from metal chelate purification); made in house; host or cells: Sf9 insect cells (baculovirus)
As to the kind of experiment: In vitro assay PDE10A, human clone (SPA, 3H-cAMP hydrolysis). It is filed as biochemical. Particulars: human clone (h), default; for Emax: read-out: hPDE10A2 Emax; for IC50: read-out: hPDE10A2 pIC50 (converted). The procedure, abridged:
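Hydrolysis of 3H-cAMP (60 nM cAMP, 0.008 μCi tracer) proceeded for 60 min at room temperature, with the product detected by SPA bead scintillation counting. The enzyme was hPDE10A from baculovirus-infected Sf9 cells in Tris pH 7.8 buffer with MgCl2 and EGTA, and compounds were at 1% DMSO final. Blanks lacked enzyme.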

Data set [2] concerns hippocampal Shaffer collateral-CA1 synapses. Particulars: for Basal synaptic transmission, change versus vehicle-treated control during baseline pre-tetanus: urethane-anesthetized rats, SC-CA1 fEPSP slope; for Enduring (>2 h) synaptic potentiation after HFS (fEPSP slope, % of pre-tetanus baseline): vehicle level 119±4%; for fEPSP slope at 0-30 min after completion of the tetanization: vehicle level 139±1%.

In data set [3] the target is T3, Human recombinant PDE3A (hPDE3A) (Homo sapiens, UniProt Q14432).
T3 construct: purchased Scottish Biomedical; host or cells: Sf9 insect cells
As to the kind of experiment: In vitro assay PDE3A (SPA, 3H-cAMP hydrolysis).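 For all read-outs here: the method names PDE3A and the table heading PDE3B.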 The data set is classed as biochemical. Particulars: for IC50: hPDE3B pIC50, read-out: pIC50 (converted); for Emax: read-out: hPDE3B Emax, read-out: Emax. The procedure, abridged: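 Radiometric SPA measuring [3H]-cAMP hydrolysis (0.4 μM cAMP, 2.4 μCi/ml) over 60 min at room temperature, in Tris pH 7.8 buffer with MgCl2 and EGTA, 1% DMSO. Enzyme: recombinant human brain PDE3A expressed in Sf9 cells, used as partially purified lysate. Counts compared with enzyme-free blanks and vehicle controls.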

For data set [4], the target named is T4, Human recombinant PDE2A (hPDE2A) (Homo sapiens, UniProt O00408).
T4 construct: His tag (inferred from metal chelate purification); made in house; host or cells: Sf9 insect cells (baculovirus)
The experiment in a line: In vitro assay PDE2A (SPA, 3H-cGMP hydrolysis). The settings on record: for IC50: read-out: hPDE2A pIC50 (converted); for Emax: read-out: hPDE2A Emax. It is filed as biochemical.

The target in data set [5] is T5, Rat recombinant PDE10A (rPDE10A2) (Rattus norvegicus, UniProt Q9QYJ6).
T5 construct: His tag (inferred from metal chelate purification); made in house; host or cells: Sf9 insect cells (baculovirus)
T5 sequence (Q9QYJ6 1-794): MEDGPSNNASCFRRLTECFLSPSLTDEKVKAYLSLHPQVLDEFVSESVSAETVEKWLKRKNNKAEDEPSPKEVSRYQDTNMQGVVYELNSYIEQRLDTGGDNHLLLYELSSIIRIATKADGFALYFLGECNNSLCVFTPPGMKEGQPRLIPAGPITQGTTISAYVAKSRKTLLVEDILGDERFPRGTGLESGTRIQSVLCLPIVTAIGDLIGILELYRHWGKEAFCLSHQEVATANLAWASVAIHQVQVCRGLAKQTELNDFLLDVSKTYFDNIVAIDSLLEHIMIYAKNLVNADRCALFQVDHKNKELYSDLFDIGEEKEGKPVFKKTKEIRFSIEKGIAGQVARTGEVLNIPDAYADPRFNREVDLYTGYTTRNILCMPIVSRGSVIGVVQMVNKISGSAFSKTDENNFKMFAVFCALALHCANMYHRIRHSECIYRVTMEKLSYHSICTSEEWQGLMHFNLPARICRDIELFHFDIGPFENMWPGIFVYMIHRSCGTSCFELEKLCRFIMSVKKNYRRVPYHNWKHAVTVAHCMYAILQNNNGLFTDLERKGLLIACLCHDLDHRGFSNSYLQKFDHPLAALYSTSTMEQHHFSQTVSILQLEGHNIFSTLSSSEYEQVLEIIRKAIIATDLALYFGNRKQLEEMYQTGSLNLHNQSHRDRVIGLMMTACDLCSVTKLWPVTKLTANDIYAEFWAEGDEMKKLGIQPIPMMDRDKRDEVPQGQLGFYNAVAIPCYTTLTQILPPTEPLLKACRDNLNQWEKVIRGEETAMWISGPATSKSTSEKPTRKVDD
As to the kind of experiment: In vitro assay PDE10A, rat clone (SPA, 3H-cAMP hydrolysis). The data set is classed as biochemical. The settings on record: for IC50: read-out: rPDE10A2 pIC50 (converted). The protocol: Rat recombinant PDE10A (rPDE10A2) was expressed in Sf9 cells using a recombinant rPDE10A baculovirus construct. Cells were harvested after 48 h of infection and the rPDE10A protein was purified by metal chelate chromatography on Ni-sepharose 6FF. Tested compounds were dissolved and diluted in 100% DMSO to a concentration 100 fold of the final concentration in the assay. Human recombinant PDE10A ([…]) was expressed in Sf9 cells using a recombinant hPDE10A baculovirus that was made and amplified in house. Cells were harvested after 72 h of infection and the hPDE10A protein was purified by metal chelate chromatography on Ni-sepharose. Compound dilutions (0.4 μl) were added in 384 well plates to 20 μl of incubation buffer (50 mM Tris pH 7.8, 8.3 mM MgCl2, 1.7 mM EGTA). 10 μl of rPDE10A or hPDE10A enzyme in incubation buffer was added and the reaction was started by addition of 10 μl substrate to a final concentration of 60 nM cAMP and 0.008 μCi ^3H-cAMP. The reaction was incubated for 60 minutes at room temperature. After incubation, the reaction was stopped with 20 μl of stop solution consisting of 17.8 mg/ml PDE SPA (scintillation proximity assay) beads. After sedimentation of the beads during 30 minutes the radioactivity was measured in a Perkin Elmer Topcount scintillation counter and results were expressed as cpm. For blanc values the enzyme was omitted from the reaction and replaced by incubation buffer. Control values were obtained by addition of a final concentration of 1% DMSO instead of compound. A best fit curve is fitted by a minimum sum of squares method to the plot of % of control value subtracted with blanc value versus compound concentration and the half maximal inhibitory concentration (IC50) value is derived from this curve.

Setting [6] is: human recombinant PDE2A, 10 μM cGMP substrate.

T3 sequence (Q14432 whole entry): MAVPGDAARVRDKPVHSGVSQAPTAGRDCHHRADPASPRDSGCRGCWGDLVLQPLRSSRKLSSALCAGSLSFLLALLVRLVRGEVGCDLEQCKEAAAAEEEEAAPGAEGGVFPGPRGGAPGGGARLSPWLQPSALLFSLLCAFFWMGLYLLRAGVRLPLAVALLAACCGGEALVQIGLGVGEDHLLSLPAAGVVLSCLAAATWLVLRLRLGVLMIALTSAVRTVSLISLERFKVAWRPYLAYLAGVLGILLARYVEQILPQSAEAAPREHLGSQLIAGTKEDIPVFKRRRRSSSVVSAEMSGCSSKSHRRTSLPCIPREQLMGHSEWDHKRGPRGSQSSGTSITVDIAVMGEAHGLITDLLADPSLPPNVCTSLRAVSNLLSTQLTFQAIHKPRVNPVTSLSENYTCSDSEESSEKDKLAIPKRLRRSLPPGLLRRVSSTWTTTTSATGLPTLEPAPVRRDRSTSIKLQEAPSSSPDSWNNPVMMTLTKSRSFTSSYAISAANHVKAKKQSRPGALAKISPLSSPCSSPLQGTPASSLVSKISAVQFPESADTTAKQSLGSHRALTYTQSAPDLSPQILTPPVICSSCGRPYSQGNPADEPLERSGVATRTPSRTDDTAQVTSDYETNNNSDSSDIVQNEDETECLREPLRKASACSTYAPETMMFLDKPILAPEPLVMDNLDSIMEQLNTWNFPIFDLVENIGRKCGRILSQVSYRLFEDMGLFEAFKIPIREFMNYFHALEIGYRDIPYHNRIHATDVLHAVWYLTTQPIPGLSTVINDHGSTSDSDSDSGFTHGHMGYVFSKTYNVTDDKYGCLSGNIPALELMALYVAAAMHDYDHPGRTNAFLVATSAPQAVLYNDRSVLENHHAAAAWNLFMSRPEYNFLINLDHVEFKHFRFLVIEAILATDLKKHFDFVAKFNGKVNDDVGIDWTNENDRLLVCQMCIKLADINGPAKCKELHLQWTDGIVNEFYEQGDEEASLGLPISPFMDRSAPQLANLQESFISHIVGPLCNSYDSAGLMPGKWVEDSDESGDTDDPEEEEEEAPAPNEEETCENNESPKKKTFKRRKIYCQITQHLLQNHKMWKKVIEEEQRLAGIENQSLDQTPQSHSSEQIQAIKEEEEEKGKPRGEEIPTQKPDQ
T2 sequence (Q9Y233 267-1055): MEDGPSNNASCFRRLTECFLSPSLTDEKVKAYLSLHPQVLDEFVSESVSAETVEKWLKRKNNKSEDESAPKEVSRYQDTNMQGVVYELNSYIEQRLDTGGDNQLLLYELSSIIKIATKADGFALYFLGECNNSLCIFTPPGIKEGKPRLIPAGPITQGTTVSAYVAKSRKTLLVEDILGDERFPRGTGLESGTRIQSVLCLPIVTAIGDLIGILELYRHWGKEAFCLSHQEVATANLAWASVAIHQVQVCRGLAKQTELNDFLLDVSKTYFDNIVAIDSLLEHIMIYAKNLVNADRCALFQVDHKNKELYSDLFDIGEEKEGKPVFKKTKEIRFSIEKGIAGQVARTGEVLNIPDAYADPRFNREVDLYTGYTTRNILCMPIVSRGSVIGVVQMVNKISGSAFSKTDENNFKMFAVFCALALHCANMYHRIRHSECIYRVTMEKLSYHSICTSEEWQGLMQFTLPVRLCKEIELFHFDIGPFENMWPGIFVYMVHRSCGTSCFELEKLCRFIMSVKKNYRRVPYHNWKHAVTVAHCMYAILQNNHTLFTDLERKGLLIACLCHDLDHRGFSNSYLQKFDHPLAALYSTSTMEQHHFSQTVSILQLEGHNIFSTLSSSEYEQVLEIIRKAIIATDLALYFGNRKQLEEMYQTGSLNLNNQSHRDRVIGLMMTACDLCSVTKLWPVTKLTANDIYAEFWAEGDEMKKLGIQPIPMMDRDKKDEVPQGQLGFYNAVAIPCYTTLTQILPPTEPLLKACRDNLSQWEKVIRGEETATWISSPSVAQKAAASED
T4 sequence (O00408 whole entry): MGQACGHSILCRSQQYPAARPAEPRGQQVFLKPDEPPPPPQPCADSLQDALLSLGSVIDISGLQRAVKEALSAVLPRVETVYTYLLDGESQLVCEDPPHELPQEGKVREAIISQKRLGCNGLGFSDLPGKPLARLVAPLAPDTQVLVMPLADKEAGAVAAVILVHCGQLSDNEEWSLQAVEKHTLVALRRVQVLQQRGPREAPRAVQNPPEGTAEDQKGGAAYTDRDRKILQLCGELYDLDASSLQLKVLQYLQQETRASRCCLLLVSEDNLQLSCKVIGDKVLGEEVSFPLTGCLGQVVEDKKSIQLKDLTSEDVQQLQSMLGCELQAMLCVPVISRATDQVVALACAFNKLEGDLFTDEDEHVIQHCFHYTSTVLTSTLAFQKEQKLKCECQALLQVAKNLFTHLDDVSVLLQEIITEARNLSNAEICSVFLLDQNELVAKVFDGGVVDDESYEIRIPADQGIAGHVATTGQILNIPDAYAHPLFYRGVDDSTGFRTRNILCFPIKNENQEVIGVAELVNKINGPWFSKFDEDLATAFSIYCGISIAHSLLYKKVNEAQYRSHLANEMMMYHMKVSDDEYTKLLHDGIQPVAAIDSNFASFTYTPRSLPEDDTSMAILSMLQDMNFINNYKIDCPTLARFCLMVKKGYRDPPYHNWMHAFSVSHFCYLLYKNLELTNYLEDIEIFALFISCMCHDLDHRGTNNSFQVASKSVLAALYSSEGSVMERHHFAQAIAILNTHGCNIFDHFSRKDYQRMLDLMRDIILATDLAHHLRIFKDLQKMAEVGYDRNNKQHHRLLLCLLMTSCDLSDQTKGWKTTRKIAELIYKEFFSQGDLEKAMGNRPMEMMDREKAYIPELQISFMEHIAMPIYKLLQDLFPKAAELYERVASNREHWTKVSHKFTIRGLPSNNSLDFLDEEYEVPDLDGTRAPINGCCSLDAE

As usually defined, the ED50 is the midpoint of the dose-response relation. One may read the Emax as the greatest response seen or fitted, relative to the assay's reference. At PDE2A (po, 10 mg/kg, percentage receptor occupancy, ex-vivo autoradiography, striatum), `COc1cc(C(=O)N2CC[C@@H](C)[C@H](c3cc(C(F)F)nc4ncnn34)C2)cc(C)n1` [Compound 110] showed a receptor occupancy at 10 mg/kg of 75%. Also, the ED50 on PDE2A (drug dose producing 50% receptor occupancy, read-out: PDE Occupancy ED50) came to 8.3 mg/kg. Moreover, the Emax stood at 98% in data set [1], 76% in data set [3], 101% in data set [4] (human recombinant PDE2A) and 100% in data set [4]. Moreover, the IC50 was 72.4 nM and 112 nM in data set [1]; 3390 nM in data set [3]; 0.955 nM in data set [4] (setting [6]); 1.32 nM in data set [4]. Besides, the “Basal synaptic transmission, change versus vehicle-treated control during baseline pre-tetanus” value in data set [2] (20 mg/kg subcutaneous) is “+8%”; in data set [2] (40 mg/kg subcutaneous), 9%. In addition, the entries for the “Enduring (>2 h) synaptic potentiation after HFS (fEPSP slope, % of pre-tetanus baseline)” value in data set [2] (20 mg/kg subcutaneous) and in data set [2] (40 mg/kg subcutaneous) were 137±8% and 142±5%, respectively. The “fEPSP slope at 0-30 min after completion of the tetanization” value in data set [2] (20 mg/kg subcutaneous, p<0.05) worked out at 153±5%; in data set [2] (40 mg/kg subcutaneous, p<0.05), 155±4%. For the same compound, the “fEPSP at 90-120 min after tetanization” value in data set [2] (40 mg/kg subcutaneous, vehicle level 106±13%, p<0.05) worked out at 129±5%. In data set [2] (40 mg/kg subcutaneous, vehicle level 116±9, p<0.05), the “fEPSP at 60-90 min after tetanization” value came to 137±5%. The “fEPSP at 30-60 min after tetanization” value in data set [2] (40 mg/kg subcutaneous, vehicle level 125±6, p<0.05) came out at 146±6%. Further, the “Overall effect on basal synaptic transmission and LTP in vivo” value in data set [2] (20 and 40 mg/kg subcutaneous, anesthetized rats) is “facilitates basal synaptic transmission and LTP in vivo”. For the same compound, the “Slope of the SC-CA1 path fEPSPs across the I/O curves (excitability of CA1 cells)” value in data set [2] (20 and 40 mg/kg versus vehicle, FIG. 16b, c) was “No differences”.

One may read the melting point as the temperature of the solid-liquid transition. Take `CC1(c2ccnc3ncnn23)CCCN(C(=O)c2ccc3occc3c2)C1` (stereo not shown) [Compound 202]: the melting point was determined as 78.65 °C. Besides, in data set [5] (rat clone (r)), the Emax turned out to be 4% and the IC50 was more than 10000 nM. In addition, the “rPDE10A2 pIC50” value in data set [5] (rat clone, indicated as (r)) is given as <5 (r). In addition, in data set [1], the Emax was 38% and the IC50 is more than 10000 nM. Moreover, in data set [3], the IC50 was more than 10000 nM and the Emax amounted to 18%. In addition, the IC50 in data set [4] (setting [6]) was 2690 nM. In addition, in data set [4] (human recombinant PDE2A), the Emax is 30%. In data set [4], the Emax is 30% and the IC50 is 2690 nM.

In turn, `CC(=O)N1CCc2cc(C(=O)N3CCC[C@@](C)(c4cc(C(F)F)nc5ncnn45)C3)ccc21` (single isomer, unassigned) [Compound 203] registered a melting point of 204.03 °C. Further, in data set [5] (rat clone (r)), the Emax came to 14% and the IC50 was more than 10000 nM. Further, in data set [5] (rat clone, indicated as (r)), the “rPDE10A2 pIC50” value is <5 (r). Moreover, in data set [3], the IC50 is more than 10000 nM and the Emax worked out at 41%. Besides, the IC50 in data set [4] (setting [6]) was 955 nM. Moreover, the Emax in data set [4] (human recombinant PDE2A) is 48%. For the same compound, in data set [4], the Emax was 48% and the IC50 was 955 nM.

`C[C@@H]1CCN(C(=O)c2ccc3nccn3c2)C[C@H]1c1cc(C(F)F)nc2ncnn12` [Compound 40]: the melting point is 181.11 °C. Besides, the “rPDE10A2 pIC50” value in data set [5] (rat clone (r)) was 7.1 (r). In addition, in data set [5] (rat clone, indicated as (r)), the Emax stood at 96% and the IC50 is 79.4 nM. In addition, in data set [1], the maximum response (Emax) was 97% and the IC50 was 123 nM. In addition, in data set [3], the IC50 is 7080 nM and the Emax came out at 58%. Also, in data set [4] (setting [6]), the IC50 was 0.355 nM. In data set [4] (human recombinant PDE2A), the Emax amounted to 101%. Moreover, in data set [4], the Emax is 101% and the IC50 is 0.355 nM.

The record behind these values is patent publication US10947242B2, “[1,2,4]triazolo[1,5and#8208;A]pyrimidine compounds as PDE2 inhibitors” (Janssen Pharmaceutica NV, priority 2016, dated 2021).
